Experimental data reported in PMC9849758, “Chemically diverse activity-based probes with unexpected inhibitory mechanisms targeting trypsin-like serine proteases” (Frontiers in Chemistry, 2023).
Entries after “also recorded” stand apart in the source; their conditions may differ.

Assays:
Type in all cases: biochemical
uPA = biological target: T1, uPA (Homo sapiens, UniProt P00749); assay: Kinetic progress curves (kapp, mechanism); conditions: for uPA kapp: apparent second-order rate constant from progress curves, mean ± SD; for uPA mechanism of inhibition: defined by the progress curves: slow-binding (Rev.) or irreversible (Irrev.)
T1 construct: purchased HYPHEN BioMed
Procedure: (§1) Because the compounds described in this paper were previously described as irreversible inhibitors, the IC50 value is inversely correlated with the second-order rate constant of inactivation. For a simple pseudo-first-order inactivation process, the activity after incubation with inhibitor (vi) varies with the inhibitor concentration (i), as described in the following equation: vi=v0·e^−kit where v0 is the activity in the absence of an inhibitor, k is the second-order rate constant of inactivation, and t is the time. The inactivation rate constant was determined from the time course of inhibition.
(§2) Kinetic assays were performed in the following manner. The inhibitor was mixed with the substrate, and the buffer solution with the enzyme was added at the time zero. The progress curves show the release of pNA or AMC as a function of time. Initially, no inhibitor is bound to the enzyme, and the tangent to the progress curve (dA/dt) is proportional to the free enzyme concentration. The free enzyme concentration decreases over time due to inhibitor binding kinetics, as described above. Progress curves were recorded in pseudo-first-order conditions ([I]0>>[E]0) and with less than 10% conversion of the substrate during the entire time course. In these conditions, dA/dt decreases exponentially with time. The progress curves were fitted with the integrated rate equation with GraFit7 to yield a value for kobs, a pseudo-first-order rate constant. At=Ao+vs∙t+vi−vs∙1−e^−kobs∙t/kobs where At is the absorbance at time t, A0 is the absorbance at time zero, vi is the initial rate and vs is the velocity at the steady-state.
(§3) The apparent second-order rate constant (kapp) was calculated from the slope of the linear part of the plot of kobs vs. the inhibitor concentration ([I]0). In the case of competition between the inhibitor and the substrate, kapp is smaller than the “real” second-order rate constant k discussed above because a certain fraction of the enzyme is present as an enzyme-substrate complex. kapp depends on the substrate concentration used in the experiment, as described by [Lambeir et al. (1996)].
(§4) The apparent equilibrium constants were obtained from the following equations, vi/vo=1/1+I/K1; vS/vo=1/1+I/KI* where vi is the initial rate, vs is the steady-state velocity and vo is the uninhibited initial rate.

β-tryptase = β-tryptase (Homo sapiens, UniProt P20231); assay: Jump dilution, determination of inhibition type; design: purchased EnzoLife Sciences; conditions: inhibitor at 10 times IC50, 15 min, diluted 10-fold or 100-fold; Rev./Irrev.
Procedure: (§5) The dissociation of the enzyme-inhibitor complex was monitored by substrate hydrolysis over time ([Joossens et al., 2006]).
(§6) Because ABPs are designed to be irreversible serine protease inhibitors, the IC50 is exclusively used as a first discriminatory evaluation. When an inhibitor is irreversible, its IC50 value not only depends on the substrate and enzyme concentration but also on the time of incubation with the enzyme before the reaction is started by adding the substrate. […] The progress curve in the presence of an irreversible inhibitor will show final velocities equal to zero (Figure 6C). In contrast, for a reversible inhibitor, progress curves have a non-zero final steady-state velocity (Figure 6A) ([McWhirter, 2021]). To corroborate the inhibitory mechanism of the compounds, jump-dilution assays were performed. These use an inhibitor concentration of 10-fold the IC50 for the incubation, and a posteriori, the reaction mixture is diluted 10-fold or 100-fold before adding the substrate. In the case of an irreversible inhibitor, enzymatic activity is not regained (Figure 6D), whereas, in the case of a reversible compound, a slow release of the inhibitor and a gradual increase of the enzymatic activity rate is observed (Figure 6B) ([Copeland, 2013]; [McWhirter, 2021]). The jump-dilution assays confirmed the behavior described by the progress curves.
(§7) 2.2.2 Jump dilution results
(§8) Supplementary Table 2. Jump dilution of selected alkyne and desthiobiotin probes against a panel of trypsin-like serine proteases. […]
(§9) # R R DtBa 3 tryptase Thrombin uPA CatG
(§10) 32b H Alk Irrev. Irrev. Rev. Irrev. Rev.
(§11) 45b DtB Irrev. Irrev. Rev. N.D. N.D.
(§12) 33b Alk Irrev. Irrev. Rev. Irrev. Rev.
(§13) 46b Cl DtB Irrev. Irrev. Rev. N.D. N.D.
(§14) 34b H Alk Rev. Rev. Rev. Irrev. Rev.
(§15) 50b DtB Rev. Rev. Rev. Irrev. Rev.
(§16) 35b Alk Rev. Rev. Rev. Irrev. Rev.
(§17) 52b NHCOMe DtB Rev. Rev. Rev. Irrev. Rev.
(§18) 36b Alk Rev. Rev. Rev. Irrev. Rev.
(§19) 54b Cl DtB Rev. Rev. Rev. Irrev. Rev.
(§20) 37b Alk Irrev. Irrev. N.D. Irrev. Irrev.
(§21) 55b H DtB Irrev. Irrev. N.D. Irrev. Irrev.
(§22) 38b Alk Irrev. Irrev. N.D. Irrev. Irrev.
(§23) 56b NHCOMe DtB Irrev. Irrev. N.D. Irrev. Irrev.
(§24) 39b Alk Irrev. Irrev. N.D. Irrev. Rev.
(§25) 57b Cl DtB Irrev. Irrev. N.D. Irrev. Rev.
(§26) 41b H Alk Irrev. Irrev. Irrev. N.D. N.D.
(§27) 31b Pro-Lys H Alk Irrev. Irrev. Irrev. Irrev. N.D. a Alk: ABP precursor bearing an alkyne; DtB: desthiobiotin probe b Panel of serine proteases abbreviations: urokinase plasminogen activator (uPA), cathepsin G (catG) N.D.: IC50 is greater than 10µM, and jump dilution was not performed
(§28) 2.2.3 Progress curves and Jump dilution experiments
(§29) Kinetic assays were performed in the following manner. The inhibitor was mixed with the substrate, and the buffer solution with the enzyme was added at the time zero. The progress curves show the release of para-nitroaniline (pNA) or 7-amino-4-methyl coumarin (AMC) as a function of time.
(§30) To monitor the dissociation of the inhibitor-enzyme, aliquots of the enzyme were incubated at 37 °C without and with the inhibitor at a concentration 10 times higher than its IC 50. The enzyme […]
(§31) min, the aliquots were diluted 10-fold or 100-fold into the substrate concentration and assay buffer used for the IC50 determination. The dissociation of the enzyme-inhibitor complex was monitored by substrate hydrolysis over time. Blue lines represent the control where no inhibitor was present. Pink lines represent the assay with inhibitor.

CatG [1] = biological target: T2, CatG (Homo sapiens, UniProt P08311); assay: Jump dilution, determination of inhibition type; design: Cathepsin G (cathepsin G human neutrophil, Sigma-Aldrich); purchased Sigma-Aldrich; conditions: inhibitor at 10 times IC50, 15 min, diluted 10-fold or 100-fold; Rev./Irrev.
T2 sequence (P08311 21-255): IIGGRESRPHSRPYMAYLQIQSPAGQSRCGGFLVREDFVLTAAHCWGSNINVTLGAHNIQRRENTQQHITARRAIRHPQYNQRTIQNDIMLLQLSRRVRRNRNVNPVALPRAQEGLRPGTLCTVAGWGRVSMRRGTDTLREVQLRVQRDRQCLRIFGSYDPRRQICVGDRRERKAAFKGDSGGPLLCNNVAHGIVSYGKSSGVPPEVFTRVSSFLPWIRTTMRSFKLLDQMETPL
Procedure: as §5, §6, §7, §8, §9, §10, §11, §12, §13, §14, §15, §16, §17, §18, §19, §20, §21, §22, §23, §24, §25, §26, §27, §28, §29, §30, §31

CatG [2] = biological target: T2, CatG; assay: Kinetic progress curves (kapp, mechanism); design: Cathepsin G (cathepsin G human neutrophil, Sigma-Aldrich); purchased Sigma-Aldrich; host or cells: human neutrophil; conditions: for CatG mechanism of inhibition: defined by the progress curves: slow-binding (Rev.) or irreversible (Irrev.)
Procedure: as §1, §2, §3, §4

β-tryptase, sequence (P20231 31-275): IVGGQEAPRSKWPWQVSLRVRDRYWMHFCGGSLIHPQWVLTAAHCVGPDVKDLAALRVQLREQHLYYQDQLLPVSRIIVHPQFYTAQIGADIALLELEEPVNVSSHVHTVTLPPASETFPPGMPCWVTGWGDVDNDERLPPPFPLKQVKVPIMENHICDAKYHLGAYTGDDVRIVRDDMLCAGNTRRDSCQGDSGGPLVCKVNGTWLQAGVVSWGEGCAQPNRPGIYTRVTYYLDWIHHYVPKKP

Structure (SMILES): C[C@@H]1NC(=O)N[C@@H]1CCCCCC(=O)NCCOCCOCCOCCn1cc(CCCOC(=O)NC(Cc2ccc(NC(=N)N)cc2)P(=O)(Oc2ccc(Cl)cc2)Oc2ccc(Cl)cc2)nn1 (stereo partly shown) [54b]
- uPA kapp (uPA): 230000 ± 36000 M⁻¹ s⁻¹
- uPA mechanism of inhibition (uPA): Irrev.
- β-tryptase jump dilution result (β-tryptase): Rev.
- CatG jump dilution result (CatG [1]): Rev.
- CatG mechanism of inhibition (CatG [2]): * ^d Rev.

Structure (SMILES): C#CCCCOC(=O)NC(Cc1ccc(NC(=N)N)cc1)P(=O)(Oc1ccc(NC(C)=O)cc1)Oc1ccc(NC(C)=O)cc1 (stereo not shown) [35b]
- uPA kapp (uPA): 130000 ± 30000 M⁻¹ s⁻¹
- uPA mechanism of inhibition (uPA): Irrev.
- β-tryptase jump dilution result (β-tryptase): Rev.
- CatG jump dilution result (CatG [1]): Rev.
- CatG kapp (CatG [2]; apparent second-order rate constant from progress curves, mean ± SD): 477 ± 67 M⁻¹ s⁻¹
- CatG mechanism of inhibition (CatG [2]): Rev.

Structure (SMILES): C#CCCCOC(=O)NC(CCCNC(=N)N)P(=O)(Oc1ccc(Cl)cc1)Oc1ccc(Cl)cc1 (stereo not shown) [33b]
- uPA kapp (uPA): 15 × 10^2 ± 12 M^−1 s^−1
- uPA mechanism of inhibition (uPA): irreversibility; also recorded: Irrev
- β-tryptase jump dilution result (β-tryptase): Irrev.
- CatG jump dilution result (CatG [1]): Rev.
- CatG mechanism of inhibition (CatG [2]): * ^d Rev.
